Columns and labels:
[1] = compound: COc1cccc(OCCCN)c1-c1cc(Nc2cnc(C#N)cn2)n[nH]1 [Prexasertib]; details: max 1 µM
In short: (§1)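 Cancer cell lines were seeded into 1536-well plates in 7.5 μl medium (DMEM/F12 or RPMI, 10% FBS), held 24 hours at 37°C and 5% CO2, and dosed for 72 hours with final DMSO typically 0.2%. Luminescence from CellTiter-Glo 2.0, scaled between blank-well and DMSO-well means, served as viability. The single-agent IC50 was obtained from dose-response fits with a non-linear mixed effects model, each fit being a two-parameter logistic curve.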

[2] = compound: C[C@@H](c1ccc2nccn2c1)n1nnc2ncc(-c3cnn(C)c3)nc21 [Savolitinib]; details: max 1 µM
In short: as §1

[3] = compound: COc1cc2ncnc(Nc3ccc(F)c(Cl)c3)c2cc1OCCCN1CCOCC1 [Gefitinib]; details: max 10 µM
In short: as §1

[4] = compound: NC1(c2ccc(-c3nc4ccn5c(=O)[nH]nc5c4cc3-c3ccccc3)cc2)CCC1 [MK-2206]; details: max 10 µM
In short: as §1

[5] = compound: Cc1cc2ncnn2cc1Nc1ncc2c(n1)n(C1CCOCC1)c(=O)n2C [AZD7648]; details: max 10 µM
In short: as §1

[6] = compound: CC1=C(C(=CC=C1)Cl)NC(=O)C2=CN=C(S2)NC3=CC(=NC(=N3)C)N4CCN(CC4)CCO [Dasatinib]; details: max 2 µM
In short: as §1

[7] = compound: COc1nnc2ccc(N3CCC(c4ccc(OCCN5CCN(C)C(=O)[C@H]5C)cc4)CC3)nn12 [AZD5153]; details: max 1 µM
In short: as §1

[8] = compound: C[C@@H](Nc1cc(F)cc(F)c1)c1cc(C(=O)N(C)C)cc2c(=O)cc(N3CCOCC3)oc12 [AZD8186]; details: max 10 µM
In short: as §1

[9] = compound: O=C(c1cc(Cc2n[nH]c(=O)c3ccccc23)ccc1F)N1CCN(C(=O)C2CC2)CC1 [Olaparib]; details: max 10 µM
In short: as §1

[10] = compound: CN(CC[C@H](CSC1=CC=CC=C1)NC2=C(C=C(C=C2)S(=O)(=O)NC(=O)C3=CC=C(C=C3)N4CCC(CC4)[C@H](C5=CC=CC=C5C6=CC=C(C=C6)Cl)O)S(=O)(=O)C(F)(F)F)CCO [AZD4320]; details: max 1 µM
In short: as §1

[11] = compound: CC(=O)c1c(C)c2cnc(Nc3ccc(N4CCNCC4)cn3)nc2n(C2CCCC2)c1=O [Palbociclib]; details: max 10 µM
In short: as §1

[12] = compound: CC(C)n1c(=O)n(C)c2cnc3cc(F)c(-c4ccc(OCCCN5CCCCC5)nc4)cc3c21 [AZD1390]; details: max 0.3 µM
In short: as §1

[13] = compound: C1CC(C1)(C(=O)[O-])C(=O)[O-].N.N.[Pt+2] [Carboplatin]; details: max 10 µM
In short: as §1

[14] = compound: CS(=O)(=O)CCNCc1ccc(-c2ccc3ncnc(Nc4ccc(OCc5cccc(F)c5)c(Cl)c4)c3c2)o1 [Lapatinib]; details: max 10 µM
In short: as §1

[15] = compound: Nc1ccn([C@@H]2O[C@H](CO)[C@@H](O)C2(F)F)c(=O)n1 [Gemcitabine]; details: max 0.3 µM
In short: as §1

[16] = compound: COc1cccc2c1C(=O)c1c(O)c3c(c(O)c1C2=O)C[C@@](O)(C(=O)CO)C[C@@H]3O[C@H]1C[C@H](N)[C@H](O)[C@H](C)O1 [Doxorubicin]; details: max 1 µM
In short: as §1

[17] = compound: CC(=O)O[C@H]1C(=O)[C@@]2(C)[C@H]([C@H](OC(=O)c3ccccc3)[C@]3(O)C[C@H](OC(=O)[C@H](O)[C@@H](NC(=O)c4ccccc4)c4ccccc4)C(C)=C1C3(C)C)[C@]1(OC(C)=O)CO[C@@H]1C[C@@H]2O [Paclitaxel]; details: max 3 µM
In short: as §1

[18] = compound: COc1cc(Nc2ncc3c(n2)-c2ccc(Cl)cc2C(c2c(F)cccc2OC)=NC3)ccc1C(=O)O [Alisertib]; details: max 10 µM
In short: as §1

[19] = compound: CN(C)CCCOc1ccc(-c2ccc3ncc4c(c3c2)n(C2CCOCC2)c(=O)n4C)cn1 [AZD0156]; details: max 3 µM
In short: as §1

[20] = compound: C1CN(CCC1(C(=O)N[C@@H](CCO)C2=CC=C(C=C2)Cl)N)C3=NC=NC4=C3C=CN4 [AZD5363]; details: max 10 µM
In short: as §1

[21] = compound: O=c1[nH]cc(F)c(=O)[nH]1 [5-Fluorouracil]; details: max 20 µM
In short: as §1

[22] = compound: C[C@@H]1COCCN1C2=NC(=NC(=C2)C3(CC3)[S@](=N)(=O)C)C4=C5C=CNC5=NC=C4 [AZD6738]; details: max 10 µM
In short: as §1

[23] = compound: CC(=O)Nc1cccc(-n2c(=O)n(C3CC3)c(=O)c3c(Nc4ccc(I)cc4F)n(C)c(=O)c(C)c32)c1 [Trametinib]; details: max 1 µM
In short: as §1

[24] = compound: Cc1nc(-c2cn3c(n2)-c2ccc(-c4cnn(C(C)(C)C(N)=O)c4)cc2OCC3)n(C(C)C)n1 [Taselisib]; details: max 10 µM
In short: as §1

[25] = compound: C=CCn1c(=O)c2cnc(Nc3ccc(N4CCN(C)CC4)cc3)nc2n1-c1cccc(C(C)(C)O)n1 [AZD1775]; details: max 3 µM
In short: as §1

[26] = compound: CCc1c2c(nc3ccc(O)cc13)-c1cc3c(c(=O)n1C2)COC(=O)[C@]3(O)CC [SN-38]; details: max 0.3 µM
In short: as §1

[27] = compound: N#Cc1cnc(Nc2cc(NC[C@H]3CNCCO3)c(C(F)(F)F)cn2)cn1 [SRA737]; details: max 10 µM
In short: as §1

[28] = compound: C[C@@H](Oc1cc(-c2cnn(C3CCNCC3)c2)cnc1N)c1c(Cl)ccc(F)c1Cl [Crizotinib]; details: max 10 µM
In short: as §1

[29] = compound: O=C(Nc1ccc2[nH]nc(-c3ccncc3)c2c1)[C@@H]1CCN(CC(=O)N2CCN(c3ccc(-c4ncccn4)cc3)CC2)C1; details: max 5 µM
In short: as §1

[30] = compound: CC1(C)CCC(CN2CCN(c3ccc(C(=O)NS(=O)(=O)c4ccc(NCC5CCOCC5)c([N+](=O)[O-])c4)c(Oc4cnc5[nH]ccc5c4)c3)CC2)=C(c2ccc(Cl)cc2)C1 [Venetoclax]; details: max 1 µM
In short: as §1

[31] = compound: Cn1cnc2c(F)c(Nc3ccc(Br)cc3Cl)c(C(=O)NOCCO)cc21 [Selumetinib]; details: max 10 µM
In short: as §1

[32] = compound: CCN(CCO)CCCOc1ccc2c(Nc3cc(CC(=O)Nc4cccc(F)c4)[nH]n3)ncnc2c1 [AZD2811]; details: max 1 µM
In short: as §1

[33] = compound: CC1=CN2[C@@H](C1)C=NC3=CC(=C(C=C3C2=O)OC)OCCCCCOC4=C(C=C5C(=C4)N=C[C@@H]6CC(=CN6C5=O)C)OC [SG3199]; details: max 0.001 µM
In short: as §1

[34] = compound: Cc1c2c(nn1C)CSCc1cc(n(C)n1)CSc1cc(c3ccccc3c1)OCCCc1c(C(=O)O)n(C)c3c-2c(Cl)ccc13 [AZD5991]; details: max 1 µM
In short: as §1

[35] = compound: COc1cc([C@@H]2c3cc4c(cc3[C@@H](O[C@@H]3O[C@@H]5CO[C@@H](C)O[C@H]5[C@H](O)[C@H]3O)[C@H]3COC(=O)[C@H]23)OCO4)cc(OC)c1O [Etoposide]; details: max 10 µM
In short: as §1

| Cell Line | IC50, cell viability 72 h [1] [nM] | IC50, cell viability 72 h [2] [nM] | IC50, cell viability 72 h [3] [nM] | IC50, cell viability 72 h [4] [nM] | IC50, cell viability 72 h [5] [nM] | IC50, cell viability 72 h [6] [nM] | IC50, cell viability 72 h [7] [nM] | IC50, cell viability 72 h [8] [nM] | IC50, cell viability 72 h [9] [nM] | IC50, cell viability 72 h [10] [nM] | IC50, cell viability 72 h [11] [nM] | IC50, cell viability 72 h [12] [nM] | IC50, cell viability 72 h [13] [nM] | IC50, cell viability 72 h [14] [nM] | IC50, cell viability 72 h [15] [nM] | IC50, cell viability 72 h [16] [nM] | IC50, cell viability 72 h [17] [nM] | IC50, cell viability 72 h [18] [nM] | IC50, cell viability 72 h [19] [nM] | IC50, cell viability 72 h [20] [nM] | IC50, cell viability 72 h [21] [nM] | IC50, cell viability 72 h [22] [nM] | IC50, cell viability 72 h [23] [nM] | IC50, cell viability 72 h [24] [nM] | IC50, cell viability 72 h [25] [nM] | IC50, cell viability 72 h [26] [nM] | IC50, cell viability 72 h [27] [nM] | IC50, cell viability 72 h [28] [nM] | IC50, cell viability 72 h [29] [nM] | IC50, cell viability 72 h [30] [nM] | IC50, cell viability 72 h [31] [nM] | IC50, cell viability 72 h [32] [nM] | IC50, cell viability 72 h [33] [nM] | IC50, cell viability 72 h [34] [nM] | IC50, cell viability 72 h [35] [nM] |
| --- | --- | --- | --- | --- | --- | --- | --- | --- | --- | --- | --- | --- | --- | --- | --- | --- | --- | --- | --- | --- | --- | --- | --- | --- | --- | --- | --- | --- | --- | --- | --- | --- | --- | --- | --- |
| NCI-H1299 (Non-Small Cell Lung Carcinoma) | 100 | > 1000 | > 10000 | > 10000 | > 10000 | 1570 | 184 | > 10000 | > 10000 | > 1000 | > 10000 | > 300 | > 10000 | > 10000 | 239 | 880 | 134 | > 10000 | > 3000 | > 10000 | > 20000 | 9870 | 912 | > 10000 | 364 | > 300 | > 10000 | > 10000 | > 5000 | > 1000 | > 10000 | > 1000 | > 1 | > 1000 | > 10000 |
| NCI-H2595 (Mesothelioma) | > 1000 | > 1000 | > 10000 | > 10000 | > 10000 | > 2000 | > 1000 | > 10000 | > 10000 | > 1000 | > 10000 | > 300 | > 10000 | > 10000 | > 300 | > 1000 | 1280 | > 10000 | > 3000 | > 10000 | > 20000 | > 10000 | > 1000 | > 10000 | > 3000 | > 300 | > 10000 | > 10000 | > 5000 | > 1000 | > 10000 | > 1000 | > 1 | > 1000 | > 10000 |
| OCI-AML2 (Acute Myeloid Leukemia) | 12.4 | > 1000 | > 10000 | > 10000 | > 10000 | > 2000 | 43 | > 10000 | 6690 | 6.33 | 3170 | > 300 | > 10000 | > 10000 | 7.97 | 12.3 | 4.45 | 1340 | > 3000 | 7580 | 1200 | 965 | < 1 | > 10000 | 358 | 4.7 | 1170 | 2780 | 51.5 | 7.92 | 36.6 | 341 | > 1 | 193 | 503 |
| SK-N-FI (Neuroblastoma) | 60.3 | > 1000 | > 10000 | > 10000 | > 10000 | > 2000 | 447 | > 10000 | > 10000 | > 1000 | > 10000 | > 300 | > 10000 | > 10000 | > 300 | > 1000 | 2250 | 2480 | > 3000 | > 10000 | > 20000 | 8510 | 117 | 955 | 1600 | 157 | > 10000 | > 10000 | > 5000 | > 1000 | 7750 | > 1000 | > 1 | > 1000 | > 10000 |
| SN12C (Kidney Carcinoma) | > 1000 | > 1000 | > 10000 | > 10000 | > 10000 | > 2000 | > 1000 | > 10000 | > 10000 | > 1000 | > 10000 | > 300 | > 10000 | > 10000 | > 300 | > 1000 | > 3000 | > 10000 | > 3000 | > 10000 | > 20000 | > 10000 | > 1000 | > 10000 | > 3000 | 290 | > 10000 | > 10000 | > 5000 | > 1000 | > 10000 | > 1000 | > 1 | > 1000 | > 10000 |

From the supplement of paper PMC11061612
